The record followed here is publication PMC12153338, “Resistance to oxyimino-cephalosporins conferred by an alternative mechanism of hydrolysis by the Acinetobacter-derived cephalosporinase-33 (ADC-33), a class C β-lactamase present in carbapenem-resistant Acinetobacter baumannii (CRAb)” (mBio, 2025).

In general, MIC refers to the lowest concentration found to suppress growth. By Ki is commonly meant a dissociation constant, usually derived from enzyme kinetics or from competition with a known ligand. A higher Ki goes with a looser hold on the target.

Assay [1] concerns ADC-7 in DH10B Escherichia coli. Put plainly: MIC by broth microdilution, ADC-7 in DH10B E. coli. In kind it is cell-based. The conditions noted are these: DH10B E. coli expressing ADC-7 (non-Adup) from pBCSK−, FDC in iron-depleted cation-adjusted MH broth, mode of triplicate. How it is done: (§1) Susceptibility testing to standard antibiotics was performed by broth microdilution according to 2024 Clinical and Laboratory Standards Institute (CLSI) guidelines ([38]). MICs for FDC were done in iron-depleted cation-adjusted Mueller-Hinton (MH) broth according to CLSI methods. All MICs were interpreted according to the 2024 CLSI guidelines ([38]). MICs are done in triplicate, and the mode MIC value is reported.
(§2) blaADC-7 pBCSK− was cloned and expressed in E. coli DH10B cells as previously described for MIC determinations ([3]). The pBCSK-non-inducible phagemid vector has a chloramphenicol resistance gene used to aid selection. All other blaADC variants were synthesized by GenScript according to the blaADC-7 pBCSK− strategy, cloning into the XbaI/BamHI sites of the pBCSK− vector ([5]).
Background: Broth dilution looks for growth in wells or tubes with falling amounts of substance.

Assay [2] concerns ADC-143 in DH10B Escherichia coli. Put plainly: MIC by broth microdilution, ADC-143 in DH10B E. coli. The conditions noted are these: DH10B E. coli expressing ADC-143 (non-Adup) from pBCSK−, FDC in iron-depleted cation-adjusted MH broth, mode of triplicate. In kind it is cell-based. How it is done:
as §1, §2

Assay [3] relates to ADC-217 in DH10B Escherichia coli. Put plainly: MIC by broth microdilution, ADC-217 in DH10B E. coli. In kind it is cell-based. As to conditions: DH10B E. coli expressing ADC-217 (non-Adup) from pBCSK−, FDC in iron-depleted cation-adjusted MH broth, mode of triplicate. On the procedure:
as §1, §2

Assay [4] concerns ADC-172 in DH10B Escherichia coli. The assay is described as follows: MIC by broth microdilution, ADC-172 in DH10B E. coli. The assay is classed as cell-based. As to conditions: Escherichia coli; DH10B E. coli expressing ADC-172 (Adup) from pBCSK−; FDC in iron-depleted cation-adjusted MH broth; mode of triplicate; read-out: MIC. How it is done:
as §1, §2

Assay [5] concerns ADC-218 in DH10B Escherichia coli. Put plainly: MIC by broth microdilution, ADC-218 in DH10B E. coli. In kind it is cell-based. The conditions noted are these: DH10B E. coli expressing ADC-218 (Adup) from pBCSK−, FDC in iron-depleted cation-adjusted MH broth, mode of triplicate. On the procedure:
as §1, §2

Assay [6] has as its system ADC-219 in DH10B Escherichia coli. The assay is described as follows: MIC by broth microdilution, ADC-219 in DH10B E. coli. In kind it is cell-based. The conditions noted are these: DH10B E. coli expressing ADC-219 (Adup) from pBCSK−, FDC in iron-depleted cation-adjusted MH broth, mode of triplicate. On the procedure:
as §1, §2

Assay [7] deals with DH10B Escherichia coli pBCSK− no insert. Put plainly: MIC by broth microdilution, DH10B E. coli with pBCSK− no insert. The assay is classed as cell-based. As to conditions: DH10B E. coli with pBCSK− no insert (control strain), FDC in iron-depleted cation-adjusted MH broth. How it is done: as §1, §2
The subject of assay [8] is DH10B alone. Put plainly: MIC by broth microdilution, DH10B alone. The assay is classed as cell-based. As to conditions: Escherichia coli; DH10B alone (control strain); FDC in iron-depleted cation-adjusted MH broth. On the procedure: as §1, §2
The target of assay [9] is ADC-7 (Acinetobacter baumannii, UniProt Q6DRA1). Put plainly: Competition kinetics with nitrocefin (Ki), ADC-7. In kind it is biochemical. As to conditions: 3 min pre-incubation, Cheng-Prusoff corrected. How it is done: (§3) For inhibition kinetics, utilizing NCF as a colorimetric substrate of ADCs, the inhibition constant (Ki) of CAZ and FDC with ADCs was determined using competition kinetics as previously described ([5]). After a 3 min pre-incubation of the enzyme (2 nM) with increasing concentration of the inhibitor, measurements of the initial velocities were performed with the addition of 100–200 µM NCF (twofold of the experimentally determined KM value). To determine the average velocities (v0), data from three experiments were fit to the followingequation: […]
(§4) where vu represents the NCF uninhibited velocity and IC50 represents the inhibitor concentration that results in a 50% reduction of vu. The Ki value was corrected for the NCF affinity (KM values for each ADC) with the Cheng-Prusoff ([5]) equation: […]
(§5) The standard error for Ki values was generated by factoring in the larger of the proportional standard errors for the individual IC50 value and the KM -NCF value.

Assay [10] deals with T1, ADC-30 (Acinetobacter baumannii, UniProt A7XM81). Put plainly: Competition kinetics with nitrocefin (Ki), ADC-30. In kind it is biochemical. As to conditions: 3 min pre-incubation, Cheng-Prusoff corrected. On the procedure:
as §3, §4, §5

Assay [11] concerns the target ADC-143 (Acinetobacter baumannii, UniProt Q6DRA1, Q144K, form not given). The assay is described as follows: Competition kinetics with nitrocefin (Ki), ADC-143. In kind it is biochemical. As to conditions: 3 min pre-incubation, Cheng-Prusoff corrected. On the procedure:
as §3, §4, §5

Assay [12] has as its target ADC-172 (Acinetobacter baumannii, UniProt A7Y407, N321K). The assay is described as follows: Competition kinetics with nitrocefin (Ki), ADC-172. The assay is classed as biochemical. The conditions noted are these: 3 min pre-incubation, Cheng-Prusoff corrected. How it is done:
as §3, §4, §5

In assay [13] the target is T1, ADC-30. The assay is described as follows: Timed electrospray ionization mass spectrometry of acylated adducts, ADC-30. The assay is classed as binding. As to conditions: ADC-30, +468 Da adduct, at 1 h; enzyme:substrate 1:25. How it is done:
(§6) β-Lactamase (5 µg) was incubated with substrate at a molar ratio of 1:25 (FDC, CAZ, meropenem [MEM]) in sterile 10 mM PBS, pH 7.4, for a total reaction volume of 20 µL (t = 30 s, 1 min, 15 min, 30 min, 1 h, 2 h, and 24 h). Reactions were quenched with 1% acetonitrile and 0.1% formic acid. Samples were analyzed using Q-TOF Waters Synapt-G2-Si and a Waters Acquity ultrapressure liquid chromatography BEH C18 column (1.7 µm […]; 2.1 × 50 mm). MassLynx v.4.1 was used to deconvolute protein peaks. The tune settings for each data run were as follows: capillary voltage at 3.5 kV, sampling cone at 35, source offset at 35, source temperature 100°C, desolvation temperature 500°C, cone gas at 100 L/h, desolvation gas at 800 L/h, and nebulizer bar at 6.0. Mobile phase A was 0.1% formic acid-water. Mobile phase B was 0.1% formic acid-acetonitrile. The mass accuracy for this system is ±5 Da. Mass spectrometry experiments were performed once over a range of time points.

For assay [14], the target named is T2, ADC-33 (Acinetobacter baumannii, UniProt A7Y407). The assay is described as follows: Timed electrospray ionization mass spectrometry of acylated adducts, ADC-33. The conditions noted are these: ADC-33, incubation 30 s–1 h; enzyme:substrate 1:25. The assay is classed as binding. On the procedure:
as §6

Assay [15] addresses T2, ADC-33. Put plainly: Thermal denaturation by circular dichroism, ADC-33. The assay is classed as binding. The conditions noted are these: ADC-33 12 µM, 1 mM antibiotic, PBS pH 7.4. How it is done: For thermal denaturation, protein samples were monitored for helical content by circular dichroism in the far-UV region at 210 and 220 nm using a Jasco J-815 spectrometer (Easton, MD) with a Peltier-effect temperature controller, as previously described ([41]). Enzyme concentrations were 12 µM in phosphate-buffered saline (PBS) pH 7.4. The thermodynamic stability of apoADC-30 and ADC-33, and with 1 mM FDC and CAZ, was determined from equilibrium unfolding curves. With the assumption of a reversible two-state transition, we determined the Tm at the midpoint of equilibrium folding. Thermal denaturation experiments were done in duplicate under the same conditions, with each data point representing the average of three successive scans, and the Tm values are consistent with ±1°C variation.
Background: Circular dichroism is widely used to follow secondary structure.

Assay [16] concerns ADC variants in DH10B Escherichia coli. The assay is described as follows: MIC, statements across ADC variants in E. coli. In kind it is cell-based. On the procedure: as §1, §2

The structures appear in SMILES notation. In brackets after ≈: the same amount, converted by molar mass. Where only a bound is given, the exact number is not on record here.

As for `CC(C)(O/N=C(\C(=O)N[C@@H]1C(=O)N2C(C(=O)[O-])=C(C[n+]3ccccc3)CS[C@H]12)c1csc(N)n1)C(=O)O` [CAZ, ceftazidime], the MIC is 64 mg/L (≈ 117 µM) in assay [1]; 256 mg/L (≈ 468 µM) in assay [2]; 128 mg/L (≈ 234 µM) in assay [3]; 1020 mg/L (≈ 1870 µM) in assay [4]; 2050 mg/L (≈ 3750 µM) in assay [5]; 64 mg/L (≈ 117 µM) in assay [6]. The MIC in assay [7] was 0.25 mg/L (≈ 0.457 µM); in assay [8], 0.5 mg/L (≈ 0.915 µM); in [16], at least 1020 mg/L. The Ki in assay [9] was 2.1 ± 0.25 µM; in [10] it was 3.23 ± 0.31 µM; in assay [11], 47.8 ± 3.34 µM; in assay [12], 12.7 ± 1.45 µM. The “percentage of acylated adduct” value in [13] was determined as 20%. Also, the “formation of stable acyl-enzyme adduct” value in assay [14] is on record as “did not form a stable acyl-enzyme adduct”. Also, the “change of Tm of the β-lactamase on addition of antibiotic” value in [15] is given as “does not alter the Tm”.
